What was measured:
APESV = experiment: greenhouse pre-emergence herbicidal test; assay type: in vivo, Apera spica-venti; details: pre-emergence method, scale from 0 to 100
In short: (§1)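 Compounds suspended or emulsified in water, sprayed pre-emergence directly after sowing; containers covered until rooting, kept at 10-25 °C or 20-35 °C by species. Damage scored 0-100 (100 = no emergence or complete destruction of aerial parts) after 2 to 4 weeks.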

ECHCG [1] = experiment: greenhouse pre-emergence herbicidal test; assay type: in vivo, Echinocloa crus-galli; details: pre-emergence method, application rate 500 g/ha, scale from 0 to 100
In short: as §1

POLCO [2] = experiment: greenhouse pre-emergence herbicidal test; assay type: in vivo, Polygonum convolvulus; details: pre-emergence method, application rate 500 g/ha, scale from 0 to 100
Description: (§2) The seeds of the test plants were sown separately for each species. For the pre-emergence treatment, the active ingredients, which had been suspended or emulsified in water, were applied directly after sowing by means of finely distributing nozzles. The containers were irrigated gently to promote germination and growth and subsequently covered with transparent plastic hoods until the plants had rooted. This cover caused uniform germination of the test plants, unless this had been impaired by the active ingredients. Depending on the species, the plants were kept at 10-25° C. or 20-35° C., respectively. The test period extended over 2 to 4 weeks. During this time, the plants were tended, and their response to the individual treatments was evaluated. Evaluation was carried out using a scale from 0 to 100. 100 means no emergence of the plants, or complete destruction of at least the aerial moieties, and 0 means no damage, or normal course of growth. […] The plants used in the greenhouse experiments were of the following species: [table]

ALOMY = experiment: greenhouse post-emergence herbicidal test; assay type: in vivo, Alopercurus myosuroides; details: post-emergence method, application rate 500 g/ha, scale from 0 to 100
In short: (§3)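 Scoring 0 (no damage) to 100 (no emergence or total destruction of aerial parts), taken over a 2 to 4 week period after post-emergence treatment at 3 to 15 cm plant height. Compounds applied as aqueous suspension or emulsion; greenhouse temperature 10-25° C. or 20-35° C. depending on species.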

AVEFA = experiment: greenhouse post-emergence herbicidal test; assay type: in vivo, Avena fatua; details: post-emergence method, scale from 0 to 100
In short: as §3

ECHCG [3] = experiment: greenhouse post-emergence herbicidal test; assay type: in vivo, Echinocloa crus-galli; details: post-emergence method, scale from 0 to 100
In short: as §3

SETFA = experiment: greenhouse pre-emergence herbicidal test; assay type: in vivo, Setaria faberi; details: pre-emergence method, application rate 1000 g/ha, scale from 0 to 100
Description: as §2

ABUTH = experiment: greenhouse post-emergence herbicidal test; assay type: in vivo, Abutilon theophrasti; details: post-emergence method, application rate 1000 g/ha, scale from 0 to 100
In short: as §3

AMARE [4] = experiment: greenhouse post-emergence herbicidal test; assay type: in vivo, Amaranthus retroflexus; details: post-emergence method, scale from 0 to 100
In short: as §3

AMARE [5] = experiment: greenhouse pre-emergence herbicidal test; assay type: in vivo, Amaranthus retroflexus; details: pre-emergence method, scale from 0 to 100
Description: as §2

LOLMU = experiment: greenhouse post-emergence herbicidal test; assay type: in vivo, Lolium multiflorum; details: post-emergence method, scale from 0 to 100
Description: (§4) The seeds of the test plants were sown separately for each species. For the post-emergence treatment, the test plants were first grown to a height of 3 to 15 cm, depending on the plant habit, and only then treated with the active ingredients which had been suspended or emulsified in water. For this purpose, the test plants were either sown directly and grown in the same containers, or they were first grown separately as seedlings and transplanted into the test containers a few days prior to treatment. Depending on the species, the plants were kept at 10-25° C. or 20-35° C., respectively. The test period extended over 2 to 4 weeks. During this time, the plants were tended, and their response to the individual treatments was evaluated. Evaluation was carried out using a scale from 0 to 100. 100 means no emergence of the plants, or complete destruction of at least the aerial moieties, and 0 means no damage, or normal course of growth. […] The plants used in the greenhouse experiments were of the following species: [table]

POLCO [6] = experiment: greenhouse post-emergence herbicidal test; assay type: in vivo, Polygonum convolvulus; details: post-emergence method, application rate 500 g/ha, scale from 0 to 100
In short: as §3

SETVI = experiment: greenhouse post-emergence herbicidal test; assay type: in vivo, Setaria viridis; details: post-emergence method, application rate 500 g/ha, scale from 0 to 100
Description: as §4

Q: Which results are given for `O=C(OCC(F)F)c1nc(C2CC2)ncc1-c1ccccc1Cl` [example 257]?
A: herbicidal activity against APESV (APESV; application rate 500 g/ha): very good (a very good herbicidal activity is given at values of at least 85); herbicidal activity against ECHCG (ECHCG [1]): very good (a very good herbicidal activity is given at values of at least 85); herbicidal activity against POLCO (POLCO [2]): very good (a very good herbicidal activity is given at values of at least 85); herbicidal activity against ALOMY (ALOMY): very good (a very good herbicidal activity is given at values of at least 85); herbicidal activity against AVEFA (AVEFA; application rate 500 g/ha): very good (a very good herbicidal activity is given at values of at least 85); herbicidal activity against ECHCG (ECHCG [3]; application rate 500 g/ha): good (A good herbicidal activity is given at values of at least 70)

Q: What does the source list for `COC(=O)c1nc(C2CCC2)ncc1-c1ccccc1C` [example 264]?
A: herbicidal activity against APESV (APESV; application rate 1000 g/ha): good (A good herbicidal activity is given at values of at least 70); herbicidal activity against SETFA (SETFA): very good (a very good herbicidal activity is given at values of at least 85); herbicidal activity against ABUTH (ABUTH): very good (a very good herbicidal activity is given at values of at least 85); herbicidal activity against AMARE (AMARE [4]; application rate 1000 g/ha): very good (a very good herbicidal activity is given at values of at least 85)

Q: Which “herbicidal activity against AMARE” value (AMARE [5]; application rate 1000 g/ha) does the source give for `COC(=O)c1nc(C2CCCO2)ncc1-c1ccccc1C` (centres unmarked) [example 276] here?
A: very good (a very good herbicidal activity is given at values of at least 85)

Q: And the “herbicidal activity against ABUTH” value (ABUTH)?
A: very good (a very good herbicidal activity is given at values of at least 85)

Q: What about the “herbicidal activity against AMARE” value (AMARE [4]; application rate 1000 g/ha) of the same molecule?
A: very good (a very good herbicidal activity is given at values of at least 85)

Q: `CN(C)C(=O)c1nc(C2CC2)ncc1-c1ccccc1Cl` [example 285] was tested. Which “herbicidal activity against AMARE” value (AMARE [5]; application rate 500 g/ha) did it give?
A: good (A good herbicidal activity is given at values of at least 70)

Q: What about the “herbicidal activity against APESV” value (APESV; application rate 500 g/ha) of the same molecule?
A: good (A good herbicidal activity is given at values of at least 70)

Q: With `CS(=O)(=O)NC(=O)c1nc(C2CC2)ncc1-c1ccccc1Cl` [example 286] as the molecule, how does the “herbicidal activity against APESV” value (APESV; application rate 500 g/ha) read?
A: very good (a very good herbicidal activity is given at values of at least 85)

Q: What about the “herbicidal activity against ECHCG” value (ECHCG [1]) of the same molecule?
A: very good (a very good herbicidal activity is given at values of at least 85)

Q: And the “herbicidal activity against AMARE” value (AMARE [4]; application rate 500 g/ha)?
A: very good (a very good herbicidal activity is given at values of at least 85)

Q: What about the “herbicidal activity against LOLMU” value (LOLMU; application rate 500 g/ha) of the same molecule?
A: very good (a very good herbicidal activity is given at values of at least 85)

Q: `CN(C)S(=O)(=O)NC(=O)c1nc(C2CC2)ncc1-c1ccccc1Cl` [example 287] was tested. Which “herbicidal activity against AMARE” value (AMARE [5]; application rate 500 g/ha) did it give?
A: very good (a very good herbicidal activity is given at values of at least 85)

Q: And the “herbicidal activity against APESV” value (APESV; application rate 500 g/ha)?
A: very good (a very good herbicidal activity is given at values of at least 85)

Q: And the “herbicidal activity against ECHCG” value (ECHCG [3]; application rate 500 g/ha)?
A: very good (a very good herbicidal activity is given at values of at least 85)

Q: And the “herbicidal activity against LOLMU” value (LOLMU; application rate 500 g/ha)?
A: very good (a very good herbicidal activity is given at values of at least 85)

Q: What about the “herbicidal activity against POLCO” value (POLCO [6]) of the same molecule?
A: very good (a very good herbicidal activity is given at values of at least 85)

Q: `NC(=O)c1nc(C2CC2)ncc1-c1ccccc1Cl` [example 288] was tested. Which “herbicidal activity against AMARE” value (AMARE [5]; application rate 500 g/ha) did it give?
A: very good (a very good herbicidal activity is given at values of at least 85)

Q: And the “herbicidal activity against APESV” value (APESV; application rate 500 g/ha)?
A: very good (a very good herbicidal activity is given at values of at least 85)

Q: And the “herbicidal activity against POLCO” value (POLCO [6])?
A: very good (a very good herbicidal activity is given at values of at least 85)

Q: What about the “herbicidal activity against SETVI” value (SETVI) of the same molecule?
A: very good (a very good herbicidal activity is given at values of at least 85)

Q: With `COC(=O)CCSC(=O)c1nc(C2CC2)ncc1-c1ccccc1Cl` [example 307] as the molecule, how does the “herbicidal activity against APESV” value (APESV; application rate 250 g/ha) read?
A: very good (a very good herbicidal activity is given at values of at least 85)

Q: What about the “herbicidal activity against AVEFA” value (AVEFA; application rate 250 g/ha) of the same molecule?
A: very good (a very good herbicidal activity is given at values of at least 85)

Q: What about the “herbicidal activity against ECHCG” value (ECHCG [3]; application rate 250 g/ha) of the same molecule?
A: good (A good herbicidal activity is given at values of at least 70)

Q: What about the “herbicidal activity against LOLMU” value (LOLMU; application rate 250 g/ha) of the same molecule?
A: very good (a very good herbicidal activity is given at values of at least 85)
